From PubChem BioAssay AID2060511 (Molecular Pharmacology Branch, DTP, NCI, 2025)

System: 422866-222-R5-J1-PDC spheroids with HUVEC/MSC, viability
Test: Anticancer human tumor 422866-222-R5-J1-PDC patient-derived pancreatic adenocarcinoma cell line growth inhibition [GQUAD]
Details: for IC50: curve of first compound; for viability, T/C: stronger effect = lower value
Description: DNA G-quadruplex Stabilizer Agents in Combinations in Complex Spheroids
A high-throughput screen of multi-cell type tumor spheroids was designed to identify active combinations of DNA G-quadruplex stabilizer agents and targeted small molecules. Complex spheroids include a stromal component modeled by human endothelial cells (HUVEC) and fibroblasts modeled by human mesenchymal stem cells (MSCs). The concentration ranges selected for each drug and investigational agent were based upon clinically achievable concentrations if the clinical Cmax of the agent was known.
Compounds. The drugs and investigational agents: pidnarulex (CX-5461; NSC782164), APTO-253 (NSC789042), BRACO-19 (NSC847499), peposertib (NSC802822), ceralasertib (NSC780249), elimusertib (NSC800525), camonsertib (NSC841442), AZD-1390 (NSC803789), olaparib (NSC753686), talazoparib (NSC767125), ART-558 (NSC835418), sotorasib (NSC818433), MRTX-1133 (NSC836407), SN-38 (NSC673596), topotecan (NSC609699), etoposide (NSC141540), doxorubicin (NSC123127), gemcitabine (NSC613327), 5-fluorouracil (NSC19893), paclitaxel (NSC125973), vemurafenib (NSC761431), panobinostat (NSC761190), R-306465 (JNJ-16241199; NSC773264), adavosertib (NSC754352), TP-3654 (NSC805149), carboplatin (NSC241240), KSQ-4279 (NSC840948), and staurosporine (NSC755774) were obtained from the National Cancer Institute (NCI) Developmental Therapeutics Program Chemical Repository (34). The FDA-approved anticancer drug set is available from the NCI Developmental Therapeutics Program. […] The stock solutions were prepared in dimethyl sulfoxide (DMSO, Sigma-Aldrich, St. Louis, MO, cat. D2650) at 800-fold the tested concentration and stored at -70 degrees C prior to their use. All drugs and investigational agents were tested over a range starting from a high concentration at or near the clinical Cmax and decreasing in half-log increments. If the clinical Cmax for an agent had not been determined, the highest concentration tested was 10 microM.
2.3 Cell Culture. All cells were maintained in an incubator at 37 degrees C and 5% CO2 with 95% humidity. The PDC lines were cultured according to standard operating procedures established by the NCI PDMR. All PDCs were thawed and cultured in Matrigel-coated flasks prepared with a working solution of 1X Ham's F-12 nutrient mix, without supplementation (Invitrogen, cat. 11765054), 100 U/mL penicillin-streptomycin (Invitrogen, cat. 15140122), and 2.5% Matrigel (Corning Inc., cat. 354248) for the first three passages. The 857933-349-R-J2-PDC line was cultured in 6C/Colon 1B media, which includes advanced DMEM/F-12 (Thermo Fisher Scientific, cat. 12634028), 10 mM HEPES (Thermo Fisher Scientific, cat. 15630080), 1X GlutaMAX supplement (Thermo Fisher Scientific, cat. 35050061), 0.1 mg/mL primocin (InvivoGen, cat. ant-pm-2), 10% defined fetal bovine serum, heat inactivated (HyClone Laboratories Inc., cat. SH30070.03HI), 50% L-WRN conditioned media (ATCC, cat. CRL-3276), 1.25 mM N-Acetyl-L-cysteine (Sigma-Aldrich, cat. A9165), 10 mM nicotinamide (Sigma-Aldrich, cat. N0636), 1X B-27 supplement (Thermo Fisher Scientific, cat. 17504044), 1X N-2 supplement (Thermo Fisher Scientific, cat. 17502048), 10 microM Y-27632 dihydrochloride (Tocris Bioscience, cat. 1254), and 50 ng/mL human EGF recombinant protein (Thermo Fisher Scientific, cat. PHG0311). The 485176-168-R4-J1-PDC line was cultured in Panc media, which includes all 6C/Colon 1B media components plus 100 ng/mL human FGF-10 (Thermo Fisher Scientific, cat. 100-26), 500 nM SB-431542 (Selleckchem, cat. S1067), and gastrin (Tocris, cat. 3006).
[…]

[1] = second compound 0.0316 µM, first compound 0.0316 µM
[2] = second compound 0.0316 µM, first compound 0.1 µM
[3] = second compound 0.0316 µM, first compound 0.316 µM
[4] = second compound 0.0316 µM, first compound 1 µM
[5] = second compound 0.0316 µM, first compound 3.16 µM
[6] = second compound 0.0316 µM, first compound 10 µM
[7] = second compound 0.1 µM, first compound 0.0316 µM
[8] = second compound 0.1 µM, first compound 0.1 µM
[9] = second compound 0.1 µM, first compound 0.316 µM
[10] = second compound 0.1 µM, first compound 1 µM
[11] = second compound 0.1 µM, first compound 3.16 µM
[12] = second compound 0.1 µM, first compound 10 µM
[13] = second compound 0.316 µM, first compound 0.0316 µM
[14] = second compound 0.316 µM, first compound 0.1 µM
[15] = second compound 0.316 µM, first compound 0.316 µM
[16] = second compound 0.316 µM, first compound 1 µM
[17] = second compound 0.316 µM, first compound 3.16 µM
[18] = second compound 0.316 µM, first compound 10 µM
[19] = second compound 1 µM, first compound 0.0316 µM
[20] = second compound 1 µM, first compound 0.1 µM
[21] = second compound 1 µM, first compound 0.316 µM
[22] = second compound 1 µM, first compound 1 µM
[23] = second compound 1 µM, first compound 3.16 µM
[24] = second compound 1 µM, first compound 10 µM
[25] = second compound 3.16 µM, first compound 0.0316 µM
[26] = second compound 3.16 µM, first compound 0.1 µM
[27] = second compound 3.16 µM, first compound 0.316 µM
[28] = second compound 3.16 µM, first compound 1 µM
[29] = second compound 3.16 µM, first compound 3.16 µM
[30] = second compound 3.16 µM, first compound 10 µM
[31] = second compound 10 µM, first compound 0.0316 µM
[32] = second compound 10 µM, first compound 0.1 µM
[33] = second compound 10 µM, first compound 0.316 µM
[34] = second compound 10 µM, first compound 1 µM
[35] = second compound 10 µM, first compound 3.16 µM
[36] = second compound 10 µM, first compound 10 µM
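Note: spheroids exposed to compounds for seven days before reading.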
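Throughout, for viability, T/C: percent viability relative to DMSO vehicle control taken as 100%.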

**Q.** What does the source list for `CC1COCCN1c1cc(C2(S(C)(=N)=O)CC2)nc(-c2ccnc3[nH]ccc23)n1` (centres undefined) + CN(C)c1ccc(Nc2c3ccc(NC(=O)CCN4CCCC4)cc3nc3cc(NC(=O)CCN4CCCC4)ccc23)cc1?
**A.** IC50 (second compound 0.0316 µM): 3.57 µM; IC50 (second compound 0.1 µM): 2.59 µM; IC50 (second compound 0.316 µM): 7.8 µM; IC50 (second compound 1 µM): 3.79 µM; IC50 (second compound 3.16 µM): 3.58 µM; IC50 (second compound 10 µM): 6.04 µM; viability, T/C [1]: 97.6%; viability, T/C [2]: 99.8%; viability, T/C [3]: 97.3%; viability, T/C [4]: 88.5%; viability, T/C [5]: 51%; viability, T/C [6]: 41.1%; viability, T/C [7]: 102%; viability, T/C [8]: 98.3%; viability, T/C [9]: 102%; viability, T/C [10]: 78.9%; viability, T/C [11]: 44.6%; viability, T/C [12]: 37.9%; viability, T/C [13]: 92.2%; viability, T/C [14]: 86.2%; viability, T/C [15]: 88.4%; viability, T/C [16]: 81%; viability, T/C [17]: 60.3%; viability, T/C [18]: 47.1%; viability, T/C [19]: 73.7%; viability, T/C [20]: 76.6%; viability, T/C [21]: 100%; viability, T/C [22]: 72.7%; viability, T/C [23]: 54.2%; viability, T/C [24]: 31.9%; viability, T/C [25]: 84.5%; viability, T/C [26]: 76.5%; viability, T/C [27]: 86%; viability, T/C [28]: 72%; viability, T/C [29]: 51.4%; viability, T/C [30]: 43.5%; viability, T/C [31]: 79.5%; viability, T/C [32]: 77%; viability, T/C [33]: 93%; viability, T/C [34]: 73.6%; viability, T/C [35]: 61.9%; viability, T/C [36]: 41.2%

**Q.** `COc1ccc([C@@H](O)c2cc(-c3ncnc4cc(N5CCOCC5)ccc34)c(F)cc2Cl)nn1` + CN(C)c1ccc(Nc2c3ccc(NC(=O)CCN4CCCC4)cc3nc3cc(NC(=O)CCN4CCCC4)ccc23)cc1 was tested. Which IC50 (second compound 0.0316 µM) did it give?
**A.** Its IC50 is 2.85 µM.

**Q.** And the IC50 (second compound 0.1 µM)?
**A.** The IC50 was 2.24 µM.

**Q.** What about the IC50 (second compound 0.316 µM) of the same compound?
**A.** Its IC50 is 2.36 µM.

**Q.** What about the IC50 (second compound 1 µM) of the same compound?
**A.** Its IC50 is 2.03 µM.

**Q.** What about the IC50 (second compound 3.16 µM) of the same compound?
**A.** The IC50 was 1.8 µM.

**Q.** What about the IC50 (second compound 10 µM) of the same compound?
**A.** Its IC50 is 0.876 µM.

**Q.** And the viability, T/C [1]?
**A.** Its viability, T/C is 97.8%.

**Q.** And the viability, T/C [2]?
**A.** Its viability, T/C is 96.5%.

**Q.** What about the viability, T/C [3] of the same compound?
**A.** The viability, T/C was 73.9%.

**Q.** What about the viability, T/C [4] of the same compound?
**A.** The viability, T/C was 76.7%.

**Q.** What about the viability, T/C [5] of the same compound?
**A.** The viability, T/C was 42.2%.

**Q.** And the viability, T/C [6]?
**A.** The viability, T/C was 34.5%.

**Q.** And the viability, T/C [7]?
**A.** Its viability, T/C is 98.8%.

**Q.** What about the viability, T/C [8] of the same compound?
**A.** The viability, T/C was 86.9%.

**Q.** And the viability, T/C [9]?
**A.** The viability, T/C was 79.1%.

**Q.** And the viability, T/C [10]?
**A.** The viability, T/C was 63.5%.

**Q.** And the viability, T/C [11]?
**A.** Its viability, T/C is 41.5%.

**Q.** What about the viability, T/C [12] of the same compound?
**A.** Its viability, T/C is 38.5%.

**Q.** And the viability, T/C [13]?
**A.** Its viability, T/C is 90.6%.

**Q.** What about the viability, T/C [14] of the same compound?
**A.** Its viability, T/C is 91.2%.

**Q.** And the viability, T/C [15]?
**A.** The viability, T/C was 75%.

**Q.** And the viability, T/C [16]?
**A.** The viability, T/C was 67.1%.

**Q.** What about the viability, T/C [17] of the same compound?
**A.** Its viability, T/C is 43.4%.

**Q.** And the viability, T/C [18]?
**A.** The viability, T/C was 31.8%.

**Q.** And the viability, T/C [19]?
**A.** The viability, T/C was 80.2%.

**Q.** And the viability, T/C [20]?
**A.** Its viability, T/C is 67.3%.

**Q.** What about the viability, T/C [21] of the same compound?
**A.** Its viability, T/C is 76%.

**Q.** What about the viability, T/C [22] of the same compound?
**A.** Its viability, T/C is 57.2%.

**Q.** And the viability, T/C [23]?
**A.** The viability, T/C was 45.2%.

**Q.** What about the viability, T/C [24] of the same compound?
**A.** The viability, T/C was 34.8%.

**Q.** And the viability, T/C [25]?
**A.** Its viability, T/C is 69.7%.

**Q.** What about the viability, T/C [26] of the same compound?
**A.** Its viability, T/C is 81.6%.

**Q.** And the viability, T/C [27]?
**A.** The viability, T/C was 65.5%.

**Q.** What about the viability, T/C [28] of the same compound?
**A.** Its viability, T/C is 57.9%.

**Q.** What about the viability, T/C [29] of the same compound?
**A.** Its viability, T/C is 43.1%.

**Q.** And the viability, T/C [30]?
**A.** Its viability, T/C is 29.9%.

**Q.** What about the viability, T/C [31] of the same compound?
**A.** Its viability, T/C is 92.2%.

**Q.** And the viability, T/C [32]?
**A.** The viability, T/C was 81.3%.

**Q.** What about the viability, T/C [33] of the same compound?
**A.** The viability, T/C was 67.2%.

**Q.** What about the viability, T/C [34] of the same compound?
**A.** Its viability, T/C is 44.6%.

**Q.** And the viability, T/C [35]?
**A.** The viability, T/C was 44%.

**Q.** What about the viability, T/C [36] of the same compound?
**A.** Its viability, T/C is 34.9%.
